The test system of this test is Influenza-Viren. The test can be described thus: Own studies: prophylaxis and therapy of virus infection in mice infected with influenza viruses. It is filed as in vivo, Mäuse. The note with it: per se, without admixed vaccine. The source says: Aus der Französischen Patentanmeldung Nr. 74 22 909 mit der Publikationsnummer 2 292 486 sind Huramylpeptide vom Typ der Verbindung N-Acetyl-muramyl-L-alanyl-D-isoglutamin ("MDP") bekannt. Diese Verbindungen sind als immunologische Adjuvanzien beschrieben, d.h. sie können in Mischung mit Impfstoffen dazu benützt werden, den Impferfolg zu verbessern. Eigene Untersuchungen, z.B. bei mit Influenza-Viren infizierten Mäusen, haben ergeben, dass N-Acetyl-muramyl-L-alanyl-D-isoglutamin per se, d.h. ohne Beimengung von Impfstoffen, bei der Prophylaxe und Therapie von Virusinfektionen unwirksam ist. Auch ist die Verwendbarkeit strukturell einfacher Muramylpeptide und ihrer Analogen gegen Virusinfektionen bisher nicht beschrieben.

For `CC(=O)N[C@H]1C(O)O[C@H](CO)[C@@H](O)[C@@H]1O[C@H](C)C(=O)N[C@@H](C)C(=O)N[C@H](CCC(=O)O)C(N)=O` (stereo partly drawn) [N-Acetyl-muramyl-L-alanyl-D-isoglutamin], the “Wirksamkeit bei der Prophylaxe und Therapie von Virusinfektionen” value is “unwirksam”.

These data come from EP0192611A2, “Acylated hexose derivatives and method for their preparation” (CIBA-GEIGY AG, priority 1985, dated 1986).
